Assays:
Assay type in all cases: in vivo
[1] = system: Wheat; experiment: Post-emergence test/greenhouse; settings: Table C, after three weeks
Experimental: (§1) To produce a suitable preparation of active compound, 1 part by weight of active compound is mixed with the stated amount of solvent, the stated amount of emulsifier is added and the concentrate is diluted with water to the desired concentration.
(§2) Test plants which have a height of 5-15 cm are sprayed with the preparation of active compound in such a way as to apply the particular amounts of active compound desired per unit area. After three weeks, the degree of damage to the plants is rated in % damage in comparison to the development of the untreated control.
(§3) 0%=no action (like intreated control)

[2] = system: Maize; experiment: Post-emergence test/greenhouse; settings: Table C, after three weeks
Experimental: as §1, §2, §3

[3] = system: Solanum; experiment: Post-emergence test/greenhouse; settings: Table C, after three weeks
Experimental: as §1, §2, §3

[4] = system: Chenopodium; experiment: Post-emergence test/greenhouse; settings: Table C, after three weeks
Experimental: as §1, §2, §3

[5] = system: Veronica; experiment: Post-emergence test/greenhouse; settings: Table C, after three weeks
Experimental: as §1, §2, §3

[6] = system: Amaranthus; experiment: Post-emergence test/greenhouse; settings: Table C, after three weeks
Experimental: as §1, §2, §3

[7] = system: Abuthilon; experiment: Post-emergence test/greenhouse; settings: Table C, after three weeks
Experimental: as §1, §2, §3

[8] = system: Wheat; experiment: Pre-emergence test/greenhouse; settings: Table B, after three weeks
Experimental: as §1
(§4) Seeds of the test plants are sown in normal soil and, after 24 hours, watered with the preparation of active compound. It is expedient to keep constant the amount of water per unit area. The concentration of the active compound in the preparation is of no importance, only the amount of active compound applied per unit area being decisive. After three weeks, the degree of damage to the plants is rated in % damage in comparison to the development of the untreated control. The figures denote:
(§5) 0%=no action (like untreated control)

[9] = system: Barley; experiment: Pre-emergence test/greenhouse; settings: Table A, 125 g/ha, after three weeks
Experimental: as §1, §4, §5

[10] = system: Maize; experiment: Pre-emergence test/greenhouse; settings: after three weeks
Experimental: as §1, §4, §5

[11] = system: Solanum; experiment: Pre-emergence test/greenhouse; settings: after three weeks
Experimental: as §1, §4, §5

[12] = system: Portulaca; experiment: Pre-emergence test/greenhouse; settings: after three weeks
Experimental: as §1, §4, §5

[13] = system: Chenopodium; experiment: Pre-emergence test/greenhouse; settings: after three weeks
Experimental: as §1, §4, §5

[14] = system: Matricaria; experiment: Pre-emergence test/greenhouse; settings: after three weeks
Experimental: as §1, §4, §5

[15] = system: Amaranthus; experiment: Pre-emergence test/greenhouse; settings: after three weeks
Experimental: as §1, §4, §5

[16] = system: Abuthilon; experiment: Pre-emergence test/greenhouse; settings: Table B, after three weeks
Experimental: as §1, §4, §5

## CCn1c(C(F)(F)F)nn(-c2cc(NS(=O)(=O)CC)c(C(N)=S)cc2F)c1=O [Example 5]
[1]; 15 g/ha
  degree of damage, Wheat: 10%
[2]; 15 g/ha
  degree of damage, Maize: 20%
[3]; 15 g/ha
  degree of damage, Solanum: 100%
[4]; 15 g/ha
  degree of damage, Chenopodium: 100%
[5]; 15 g/ha
  degree of damage, Veronica: 100%
[6]; 15 g/ha
  degree of damage, Amaranthus: 100%
[7]; 15 g/ha
  degree of damage, Abuthilon: 100%
[8]; 125 g/ha
  degree of damage, Wheat: 0%
[9]
  degree of damage, Barley: 0%
[10]; Table A, 125 g/ha
  degree of damage, Maize: 0%
[10]; Table B, 125 g/ha
  degree of damage, Maize: 0%
[11]; Table A, 125 g/ha
  degree of damage, Solanum: 100%
[11]; Table B, 125 g/ha
  degree of damage, Solanum: 100%
[12]; Table A, 125 g/ha
  degree of damage, Portulaca: 90%
[12]; Table B, 125 g/ha
  degree of damage, Portulaca: 90%
[13]; Table A, 125 g/ha
  degree of damage, Chenopodium: 100%
[13]; Table B, 125 g/ha
  degree of damage, Chenopodium: 100%
[14]; Table A, 125 g/ha
  degree of damage, Matricaria: 90%
[14]; Table B, 125 g/ha
  degree of damage, Matricaria: 70%
[15]; Table A, 125 g/ha
  degree of damage, Amaranthus: 100%
[15]; Table B, 125 g/ha
  degree of damage, Amaranthus: 100%
[16]; 125 g/ha
  degree of damage, Abuthilon: 10%

## C#CC(C)Oc1cc(-n2nc(C(F)F)n(C)c2=S)c(F)cc1C(N)=S (centres unmarked) [Example 6]
[1]; 8 g/ha
  degree of damage, Wheat: 30%
[2]; 8 g/ha
  degree of damage, Maize: 50%
[3]; 8 g/ha
  degree of damage, Solanum: 100%
[4]; 8 g/ha
  degree of damage, Chenopodium: 100%
[5]; 8 g/ha
  degree of damage, Veronica: 95%
[6]; 8 g/ha
  degree of damage, Amaranthus: 100%
[7]; 8 g/ha
  degree of damage, Abuthilon: 100%
[8]; 60 g/ha
  degree of damage, Wheat: 20%
[9]
  degree of damage, Barley: 0%
[10]; Table A, 125 g/ha
  degree of damage, Maize: 30%
[10]; Table B, 60 g/ha
  degree of damage, Maize: 30%
[11]; Table A, 125 g/ha
  degree of damage, Solanum: 100%
[11]; Table B, 60 g/ha
  degree of damage, Solanum: 95%
[12]; Table A, 125 g/ha
  degree of damage, Portulaca: 100%
[12]; Table B, 60 g/ha
  degree of damage, Portulaca: 100%
[13]; Table A, 125 g/ha
  degree of damage, Chenopodium: 100%
[13]; Table B, 60 g/ha
  degree of damage, Chenopodium: 100%
[14]; Table A, 125 g/ha
  degree of damage, Matricaria: 95%
[14]; Table B, 60 g/ha
  degree of damage, Matricaria: 100%
[15]; Table A, 125 g/ha
  degree of damage, Amaranthus: 100%
[15]; Table B, 60 g/ha
  degree of damage, Amaranthus: 100%
[16]; 60 g/ha
  degree of damage, Abuthilon: 100%

## CCS(=O)(=O)Nc1cc(N2C(=O)C(C)=C(C)C2=O)c(F)cc1C(N)=S [Example 22]
[1]; 30 g/ha
  degree of damage, Wheat: 15%
[2]; 30 g/ha
  degree of damage, Maize: 0%
[3]; 30 g/ha
  degree of damage, Solanum: 100%
[4]; 30 g/ha
  degree of damage, Chenopodium: 40%
[5]; 30 g/ha
  degree of damage, Veronica: 20%
[6]; 30 g/ha
  degree of damage, Amaranthus: 100%
[7]; 30 g/ha
  degree of damage, Abuthilon: 100%
[8]; 250 g/ha
  degree of damage, Wheat: 0%
[10]; Table B, 250 g/ha
  degree of damage, Maize: 20%
[11]; Table B, 250 g/ha
  degree of damage, Solanum: 100%
[12]; Table B, 250 g/ha
  degree of damage, Portulaca: 95%
[13]; Table B, 250 g/ha
  degree of damage, Chenopodium: 100%
[14]; Table B, 250 g/ha
  degree of damage, Matricaria: 100%
[15]; Table B, 250 g/ha
  degree of damage, Amaranthus: 100%
[16]; 250 g/ha
  degree of damage, Abuthilon: 100%

## CCn1c(C(F)(F)F)nn(-c2cc(N(C)S(=O)(=O)CC)c(C(N)=S)cc2F)c1=O [Example 16]
[1]; 60 g/ha
  degree of damage, Wheat: 20%
[2]; 60 g/ha
  degree of damage, Maize: 60%
[3]; 60 g/ha
  degree of damage, Solanum: 100%
[4]; 60 g/ha
  degree of damage, Chenopodium: 100%
[5]; 60 g/ha
  degree of damage, Veronica: 100%
[6]; 60 g/ha
  degree of damage, Amaranthus: 100%
[7]; 60 g/ha
  degree of damage, Abuthilon: 95%
[8]; 60 g/ha
  degree of damage, Wheat: 10%
[10]; Table B, 60 g/ha
  degree of damage, Maize: 0%
[11]; Table B, 60 g/ha
  degree of damage, Solanum: 80%
[12]; Table B, 60 g/ha
  degree of damage, Portulaca: 80%
[13]; Table B, 60 g/ha
  degree of damage, Chenopodium: 100%
[14]; Table B, 60 g/ha
  degree of damage, Matricaria: 90%
[15]; Table B, 60 g/ha
  degree of damage, Amaranthus: 20%
[16]; 60 g/ha
  degree of damage, Abuthilon: 95%

## Cn1c(C(F)(F)F)nn(-c2cc(NS(C)(=O)=O)c(C(N)=S)cc2F)c1=S [Example 34]
[1]; 15 g/ha
  degree of damage, Wheat: 0%
[2]; 15 g/ha
  degree of damage, Maize: 30%
[3]; 15 g/ha
  degree of damage, Solanum: 100%
[4]; 15 g/ha
  degree of damage, Chenopodium: 100%
[5]; 15 g/ha
  degree of damage, Veronica: 100%
[6]; 15 g/ha
  degree of damage, Amaranthus: 100%
[7]; 15 g/ha
  degree of damage, Abuthilon: 100%
[8]; 60 g/ha
  degree of damage, Wheat: 0%
[10]; Table B, 60 g/ha
  degree of damage, Maize: 0%
[11]; Table B, 60 g/ha
  degree of damage, Solanum: 100%
[12]; Table B, 60 g/ha
  degree of damage, Portulaca: 100%
[13]; Table B, 60 g/ha
  degree of damage, Chenopodium: 100%
[14]; Table B, 60 g/ha
  degree of damage, Matricaria: 100%
[15]; Table B, 60 g/ha
  degree of damage, Amaranthus: 100%
[16]; 60 g/ha
  degree of damage, Abuthilon: 100%

## CCS(=O)(=O)Nc1cc(-n2nc(C(F)(F)F)n(C)c2=S)c(F)cc1C(N)=S [Example 31]
[1]; 8 g/ha
  degree of damage, Wheat: 0%
[2]; 8 g/ha
  degree of damage, Maize: 70%
[3]; 8 g/ha
  degree of damage, Solanum: 100%
[4]; 8 g/ha
  degree of damage, Chenopodium: 90%
[5]; 8 g/ha
  degree of damage, Veronica: 100%
[6]; 8 g/ha
  degree of damage, Amaranthus: 100%
[7]; 8 g/ha
  degree of damage, Abuthilon: 100%
[8]; 60 g/ha
  degree of damage, Wheat: 0%
[10]; Table B, 60 g/ha
  degree of damage, Maize: 0%
[11]; Table B, 60 g/ha
  degree of damage, Solanum: 100%
[12]; Table B, 60 g/ha
  degree of damage, Portulaca: 100%
[13]; Table B, 60 g/ha
  degree of damage, Chenopodium: 100%
[14]; Table B, 60 g/ha
  degree of damage, Matricaria: 100%
[15]; Table B, 60 g/ha
  degree of damage, Amaranthus: 100%
[16]; 60 g/ha
  degree of damage, Abuthilon: 100%

## CCOc1cc(N2C(=O)C3CCCCN3C2=O)c(F)cc1C(N)=S (centres unmarked) [Example 47]
[1]; 8 g/ha
  degree of damage, Wheat: 10%
[2]; 8 g/ha
  degree of damage, Maize: 10%
[3]; 8 g/ha
  degree of damage, Solanum: 100%
[4]; 8 g/ha
  degree of damage, Chenopodium: 95%
[5]; 8 g/ha
  degree of damage, Veronica: 100%
[6]; 8 g/ha
  degree of damage, Amaranthus: 100%
[7]; 8 g/ha
  degree of damage, Abuthilon: 100%
[8]; 30 g/ha
  degree of damage, Wheat: 0%
[10]; Table B, 30 g/ha
  degree of damage, Maize: 0%
[11]; Table B, 30 g/ha
  degree of damage, Solanum: 100%
[12]; Table B, 30 g/ha
  degree of damage, Portulaca: 100%
[13]; Table B, 30 g/ha
  degree of damage, Chenopodium: 100%
[14]; Table B, 30 g/ha
  degree of damage, Matricaria: 100%
[15]; Table B, 30 g/ha
  degree of damage, Amaranthus: 95%
[16]; 30 g/ha
  degree of damage, Abuthilon: 100%

## CC(C)Oc1cc(-n2nc3n(c2=O)CCCC3)c(F)cc1C(N)=S [Example 17]
[1]; 8 g/ha
  degree of damage, Wheat: 10%
[2]; 8 g/ha
  degree of damage, Maize: 10%
[3]; 8 g/ha
  degree of damage, Solanum: 100%
[4]; 8 g/ha
  degree of damage, Chenopodium: 95%
[5]; 8 g/ha
  degree of damage, Veronica: 100%
[6]; 8 g/ha
  degree of damage, Amaranthus: 100%
[7]; 8 g/ha
  degree of damage, Abuthilon: 100%
[8]; 30 g/ha
  degree of damage, Wheat: 0%
[10]; Table B, 30 g/ha
  degree of damage, Maize: 0%
[11]; Table B, 30 g/ha
  degree of damage, Solanum: 100%
[12]; Table B, 30 g/ha
  degree of damage, Portulaca: 100%
[13]; Table B, 30 g/ha
  degree of damage, Chenopodium: 100%
[14]; Table B, 30 g/ha
  degree of damage, Matricaria: 100%
[15]; Table B, 30 g/ha
  degree of damage, Amaranthus: 100%
[16]; 30 g/ha
  degree of damage, Abuthilon: 100%

## CCS(=O)(=O)Nc1cc(-n2c(=O)cc(C(F)(F)F)n(C)c2=S)c(F)cc1C(N)=S [Example 21]
[1]; 4 g/ha
  degree of damage, Wheat: 5%
[2]; 4 g/ha
  degree of damage, Maize: 60%
[3]; 4 g/ha
  degree of damage, Solanum: 100%
[4]; 4 g/ha
  degree of damage, Chenopodium: 70%
[5]; 4 g/ha
  degree of damage, Veronica: 100%
[6]; 4 g/ha
  degree of damage, Amaranthus: 100%
[7]; 4 g/ha
  degree of damage, Abuthilon: 90%
[8]; 60 g/ha
  degree of damage, Wheat: 0%
[10]; Table B, 60 g/ha
  degree of damage, Maize: 0%
[11]; Table B, 60 g/ha
  degree of damage, Solanum: 100%
[12]; Table B, 60 g/ha
  degree of damage, Portulaca: 100%
[13]; Table B, 60 g/ha
  degree of damage, Chenopodium: 100%
[14]; Table B, 60 g/ha
  degree of damage, Matricaria: 100%
[15]; Table B, 60 g/ha
  degree of damage, Amaranthus: 100%
[16]; 60 g/ha
  degree of damage, Abuthilon: 100%

From patent US6451736B1, “Substituted aromatic thiocarboxylic acid amides and their use as herbicides” (Bayer Aktiengesellschaft, priority 1994, dated 2002)
